The assay deals with P388 leukemia ip, CD2F1 mice, survival T/C. The assay is described as follows: NCI In Vivo Anticancer Drug Screen. Data for tumor model P388 Leukemia (intraperitoneal) in CD2F1 (CDF1) mice. Particulars: endpoint: median survival time, higher = longer survival. As to the method:
The antitumor activity of compounds was measured in mice bearing transplantable tumors. Survival or tumor size were measured and the results are expressed as the measurement made in the treated group (T) divided by the measurement made in the vehicle treated control group (C). The tumor model used in this assay is P388 Leukemia (intraperitoneal) in CD2F1 (CDF1) mice

Setting [1] is: dose: 50.0 mg/kg/injection, schedule: Q01DX005 (ip), vehicle: Klucel (hydroxypropylcellulose) (HPC).
Where [2] appears, read: dose: 100.0 mg/kg/injection, schedule: Q01DX005 (ip), vehicle: Klucel (hydroxypropylcellulose) (HPC).
[3] abbreviates: dose: 50.0 mg/kg/injection, schedule: Q01DX009 (ip), vehicle: saline.
The mark [4] stands for this setting: dose: 100.0 mg/kg/injection, schedule: Q01DX009 (ip), vehicle: saline.
Setting [5] is: dose: 200.0 mg/kg/injection, schedule: Q01DX009 (ip), vehicle: saline.
The mark [6] stands for this setting: dose: 25.0 mg/kg/injection, schedule: Q01DX009 (ip), vehicle: saline.
Where [7] appears, read: dose: 12.5 mg/kg/injection, schedule: Q01DX009 (ip), vehicle: saline.
Where [8] appears, read: dose: 100.0 mg/kg/injection, schedule: Q01DX001 (ip), vehicle: Klucel (hydroxypropylcellulose) (HPC).
[9] abbreviates: dose: 200.0 mg/kg/injection, schedule: Q01DX001 (ip), vehicle: Klucel (hydroxypropylcellulose) (HPC).
[10] abbreviates: dose: 400.0 mg/kg/injection, schedule: Q01DX001 (ip), vehicle: Klucel (hydroxypropylcellulose) (HPC).
Setting [11] is: dose: 50.0 mg/kg/injection, schedule: Q01DX009 (ip), vehicle: saline with Tween-80.
[12] abbreviates: dose: 50.0 mg/kg/injection, schedule: Q01DX005 (ip), vehicle: saline with Tween-80.
Setting [13] is: dose: 100.0 mg/kg/injection, schedule: Q01DX005 (ip), vehicle: saline with Tween-80.

Several values for one entry are separate records, joined by “and”; a condition that tells them apart may be missing. Equal entries are not always repeated. Inconclusive results and toxic doses are left out.

With `O=S(=O)(O)C(O)c1cccc(Cl)c1` (stereo not given), the T/C (dose: 100.0 mg/kg/injection, schedule: Q04DX003 (ip), vehicle: saline) was 100 % of control; the T/C (dose: 200.0 mg/kg/injection, schedule: Q04DX003 (ip), vehicle: saline) is 110 % of control; the T/C (dose: 400.0 mg/kg/injection, schedule: Q04DX003 (ip), vehicle: saline) was 103 % of control.

Regarding `CCCCCCCCCCCCCCCc1ccc(C(=O)C[n+]2ccccc2)cc1`, the T/C by setting is: (dose: 6.25 mg/kg/injection, schedule: Q04DX003 (ip), vehicle: saline with Tween-80) 109 % of control; (dose: 12.5 mg/kg/injection, schedule: Q04DX003 (ip), vehicle: saline with Tween-80) 118 % of control; (dose: 16.5 mg/kg/injection, schedule: Q04DX003 (ip), vehicle: saline with Tween-80) 95 % of control; (dose: 25.0 mg/kg/injection, schedule: Q04DX003 (ip), vehicle: saline with Tween-80) 100 % of control.

As for `COc1ccc2c(C)cc(NNC(N)=S)nc2c1`, the T/C was 104 % of control and 107 % of control under setting [1]; 111 % of control and 120 % of control under setting [2].

On to `Cc1cc(Cl)cnc1N`, for which the T/C was 99 % of control under setting [3], 97 % of control under setting [4] and 92 % of control under setting [5].

On to `CCn1c(O)c(N=NC(=S)SCc2ccccc2)c2ccccc21`, for which the T/C is 97 % of control (dose: 1.56 mg/kg/injection, schedule: Q01DX009 (ip), vehicle: suspension in saline); 101 % of control (dose: 3.12 mg/kg/injection, schedule: Q01DX009 (ip), vehicle: suspension in saline); 87 % of control and 97 % of control (dose: 6.25 mg/kg/injection, schedule: Q01DX009 (ip), vehicle: suspension in saline); 94 % of control under setting [6].

`C[N+]1(CCC(=O)c2ccccc2)CCOCC1`: the T/C reads like this: (dose: 6.25 mg/kg/injection, schedule: Q01DX009 (ip), vehicle: saline) 100 % of control; under setting [7], 103 % of control; under setting [6], 100 % of control; under setting [3], 100 % of control and 97 % of control; under setting [5], 96 % of control.

Consider `CCCCOC(=O)c1ccc2nc(NC(=O)OC)[nH]c2c1`, for which the T/C reads like this: (dose: 100.0 mg/kg/injection, schedule: Q04DX002 (ip), vehicle: saline with Tween-80) 100 % of control; (dose: 200.0 mg/kg/injection, schedule: Q04DX002 (ip), vehicle: saline with Tween-80) 90 % of control; (dose: 400.0 mg/kg/injection, schedule: Q04DX002 (ip), vehicle: saline with Tween-80) 91 % of control.

Take `S=c1nnn(C2CCCN2)[nH]1` (stereo not given): the T/C is, setting by setting: under setting [8], 100 % of control; under setting [9], 97 % of control; under setting [10], 100 % of control.

With `O=[N+]([O-])c1ccc(SC(=S)N(c2ccccc2)c2ccccc2)c([N+](=O)[O-])c1`, the T/C by setting is: (dose: 6.25 mg/kg/injection, schedule: Q01DX009 (ip), vehicle: Klucel (hydroxypropylcellulose) (HPC)) 104 % of control; (dose: 12.5 mg/kg/injection, schedule: Q01DX009 (ip), vehicle: Klucel (hydroxypropylcellulose) (HPC)) 102 % of control; (dose: 25.0 mg/kg/injection, schedule: Q01DX009 (ip), vehicle: Klucel (hydroxypropylcellulose) (HPC)) 102 % of control; (dose: 50.0 mg/kg/injection, schedule: Q01DX009 (ip), vehicle: Klucel (hydroxypropylcellulose) (HPC)) 102 % of control.

With `CCOC(=O)CC(=O)N(c1ccc(OC)cc1)C(C(=O)OC)c1ccccc1` (stereo not given), the T/C reads like this: (dose: 60.0 mg/kg/injection, schedule: Q01DX005 (ip), vehicle: saline with Tween-80) 101 % of control; (dose: 120.0 mg/kg/injection, schedule: Q01DX005 (ip), vehicle: saline with Tween-80) 104 % of control; (dose: 240.0 mg/kg/injection, schedule: Q01DX005 (ip), vehicle: saline with Tween-80) 104 % of control.

As for `CCCCCC1OC1CC1OC1CCCCCCCC(=O)O` (stereo not given), the T/C runs as follows: under setting [3], 99 % of control; under setting [4], 90 % of control; under setting [5], 86 % of control.

As to `O=c1ccc2c(O)c3ccoc3cc2o1`, the T/C under setting [8] was 101 % of control, the T/C under setting [9] was 111 % of control and the T/C under setting [10] was 106 % of control.

For the compound `CCOC(=O)c1cc(-c2ccccn2)c(=O)n2ccccc12`, the T/C reads like this: under setting [7], 108 % of control; under setting [6], 107 % of control; under setting [11], 100 % of control; under setting [3], 100 % of control.

As for `CO/N=C1\CC(C)N2C(=O)C(C(C)C)NC(=O)C(NC(=O)c3c4nc5c(C(=O)NC6C(=O)NC(C(C)C)C(=O)N7C(C)CC(O)C7C(=O)N(C)CC(=O)N(C)C(C(C)C)C(=O)OC6C)ccc(C)c5oc-4c(C)c(=O)c3N)C(CO)OC(=O)C(C)N(C)C(=O)CN(C)C(=O)C12` (stereo not given), the T/C was 161 % of control (dose: 12.5 mg/kg/injection, schedule: Q01DX005 (ip), vehicle: saline with Tween-80) and 180 % of control (dose: 25.0 mg/kg/injection, schedule: Q01DX005 (ip), vehicle: saline with Tween-80).

As for `CC(C)=CCN=c1ncn(CCC(N)C(=O)O)c2nc[nH]c12` (stereo not given), the T/C reads like this: (dose: 3.0 mg/kg/injection, schedule: Q01DX009 (ip), vehicle: Klucel (hydroxypropylcellulose) (HPC)) 109 % of control; (dose: 6.0 mg/kg/injection, schedule: Q01DX009 (ip), vehicle: Klucel (hydroxypropylcellulose) (HPC)) 105 % of control; (dose: 12.0 mg/kg/injection, schedule: Q01DX009 (ip), vehicle: Klucel (hydroxypropylcellulose) (HPC)) 115 % of control; (dose: 24.0 mg/kg/injection, schedule: Q01DX009 (ip), vehicle: Klucel (hydroxypropylcellulose) (HPC)) 118 % of control; (dose: 48.0 mg/kg/injection, schedule: Q01DX009 (ip), vehicle: Klucel (hydroxypropylcellulose) (HPC)) 108 % of control.

On to `Nc1nc(SCc2cccc(Br)c2)c2ncn(C3OC(CO)C(O)C3O)c2n1` (stereo not given), for which the T/C is 109 % of control under setting [11]; 100 % of control (dose: 66.0 mg/kg/injection, schedule: Q01DX009 (ip), vehicle: saline with Tween-80); 104 % of control (dose: 200.0 mg/kg/injection, schedule: Q01DX009 (ip), vehicle: saline with Tween-80).

`Cc1ccc(S(=O)(=O)Oc2ccc3oc4c(CO)ccc(NCCN(C)C)c4c(=O)c3c2)cc1`: the T/C under setting [12] is 97 % of control; the T/C under setting [13] is 96 % of control; the T/C (dose: 200.0 mg/kg/injection, schedule: Q01DX005 (ip), vehicle: saline with Tween-80) was 96 % of control.

Regarding `COc1ccc2c(c1)C(CCN(C)C)(CCN(C)C)C(=O)CC2`, the T/C runs as follows: (dose: 12.5 mg/kg/injection, schedule: Q01DX005 (ip), vehicle: saline) 94 % of control; (dose: 25.0 mg/kg/injection, schedule: Q01DX005 (ip), vehicle: saline) 95 % of control; (dose: 50.0 mg/kg/injection, schedule: Q01DX005 (ip), vehicle: saline) 104 % of control and 94 % of control.

As to `CC(C)(C)C(=O)Oc1ccc(Br)cc1`, the T/C is 106 % of control under setting [8], 106 % of control under setting [9] and 108 % of control under setting [10].

For `CCN(CC)Cc1c(C)[nH]c2ccc3c(c2c1=O)CCCC3`, the T/C is 91 % of control (dose: 60.0 mg/kg/injection, schedule: Q01DX005 (ip), vehicle: Klucel (hydroxypropylcellulose) (HPC)) and 93 % of control (dose: 120.0 mg/kg/injection, schedule: Q01DX005 (ip), vehicle: Klucel (hydroxypropylcellulose) (HPC)).

`CCN(CC)CCCC(C)NCC(O)c1cc(-c2ccc(Cl)cc2)nc2ccccc12` (stereo not given): the T/C by setting is: under setting [12], 107 % of control; under setting [13], 112 % of control.

For `CCCCC(CC)COC(C)=O` (stereo not given), the T/C by setting is: (dose: 100.0 mg/kg/injection, schedule: Q04DX003 (ip), vehicle: saline with Tween-80) 104 % of control; (dose: 200.0 mg/kg/injection, schedule: Q04DX003 (ip), vehicle: saline with Tween-80) 109 % of control; (dose: 400.0 mg/kg/injection, schedule: Q04DX003 (ip), vehicle: saline with Tween-80) 86 % of control.

For `O=Cc1cc(/C(N=Nc2ccccc2C(=O)O)=N/Nc2ccccc2C(=O)O)nc2[nH]c(=O)ccc12`, the T/C under setting [1] was 95 % of control and the T/C under setting [2] is 100 % of control.

For the compound `Cc1ccc(S(=O)(=O)/C=C2\COc3ccccc3C2=O)cc1`, the T/C by setting is: (dose: 100.0 mg/kg/injection, schedule: Q04DX002 (ip), vehicle: saline) 100 % of control; (dose: 200.0 mg/kg/injection, schedule: Q04DX002 (ip), vehicle: saline) 100 % of control; (dose: 400.0 mg/kg/injection, schedule: Q04DX002 (ip), vehicle: saline) 97 % of control.

The values are drawn from PubChem BioAssay AID330 (DTP/NCI, 2004).
